How the values were obtained:
GABRR1 [1] = biological target: T1, GABRR1 (Mus musculus, UniProt P56475); experiment: Patch-clamp recording of GABA-evoked currents in purified GR+ and GR− MkPs and HSCs; format: cell-based; conditions: 1 mM GABA, whole-cell patch clamp
T1 construct: Mice were randomly grouped and injected once everyday using GABA agonists and antagonists; from tissue; host or cells: whole animal (C57BL/6J mice); read-outs in peripheral blood and bone marrow
Source text: Gabrr1^+ (GR^+) and Gabrr1^− (GR^−) HSCs or MkPs cells were then purified and tested by electrophysiological recording using patch-clamp techniques.
Electrophysiology. Whole-cell voltage-clamped recordings were made from the dissociated blood cells perfused in oxygenated ACSF containing the following (in mM): 119 NaCl, 26 NaHCO3, 10 glucose, 1.25 NaH2PO4, 2.5 KCl, 2 CaCl2, 1 MgCl2, 2 Na-pyruvate, and 0.5 ascorbic acid, pH 7.4. […] Cells were voltage clamped at various levels between −80 mV to 60 mV. The pipette internal solution contains (in mM): 120 Cs—Cl, 20 tetraethylammonium-Cl, 20 HEPES, 2 EGTA, 4 MgATP, 0.4 NaGTP, 10 phosphocreatine.
The drug was applied through a second pipette (resistance of 3-4 MΩ) connected to Picospritzer (Cleveland, OH, USA) at a pulse duration of 100 ms and pressure of 5-10 kPa.

GABRR1 [2] = biological target: T1, GABRR1; experiment: Flow cytometry of bone marrow HSPC populations of mice treated with agonists or antagonists of Gabrr1; format: in vivo; conditions: C57BL/6J mice, 7 days of treatment
Description: (§1) Mouse injection. […] Muscimol 2 mg/kg, TACA 2 mg/kg and SR95531 4 mg/kg was injected by i.p. The mice were treated for 7 days and then complete blood cell counting was done with the HemaTrue Hematology Analyzer (HESKE).
Flow Cytometry. Mouse bone marrow cells were harvested, washed, and resuspended in PBS containing 2% FBS, and subjected to the staining process with antibodies at their optimal concentrations. […] Then, to enrich HSCs and progenitor populations, cells were stained with APC-conjugated anti-c-Kit (2B8) and then with anti-APC magnetic beads (Miltenyi Biotec) after washing. The c-Kit+cells were eluted from LS columns (Miltenyi Biotec). Those cells then stained with the antibody cocktail directed against cell surface antigens as follows: for early progenitor analysis, Sca-1, Flk2, CD150, CD34, IL-7R, CD16/32, c-kit and the lineage markers Ter-119, B220, CD3, CD4, CD8a, Gr-1, CD11b, CD41. For late stage populations, cells were stained with antibodies specific for Sca-1, Endoglin [CD105], CD150, CD16/32, c-kit [CD117] and the lineage markers for 30 min at 4° C., DNA dye was used for the live/dead cells staining.
Surface marker cocktail of mouse hematopoietic stem and progenitor populations: • HSC: Lin-c-kit+Sca1+CD150+Endoglin+ • MPP: Lin-c-kit+Sca1+Endoglin−CD150− • GMP: Lin-c-kit+Sca1− CD41−FcgRII+ • EP: Lin-c-kit+Sca1− CD41−FcgRII−Endogilin+CD150− • MkP: Lin-c-kit+Sca1− CD150+CD41+ • PreGM: Lin-c-kit+Sca1− CD41−FcgRII−Endogilin−CD150− • Pre CFU-E: Lin-c-kit+Sca1− CD41−FcgRII−Endogilin+CD150+ • MEP: Lin-c-kit+Sca1− CD41−FcgRII−Endogilin−CD150+.

human CD34+ cells [3] = experiment: Real-time PCR of megakaryocyte-related genes in 7-day differentiated cells from CD34+ bone marrow cells; format: cell-based
Description: (§2) We treated human CD34+ cells with different agonists and antagonists of GABRR1.
RNA isolation and Real-Time PCR. Total RNA was extracted by RNeasy Plus Micro kit and RNeasy MinElute Cleanup Kit following manufacturer's instructions (Qiagen). Synthesis of cDNA was performed with the SuperScript™ III Reverse Transcriptase (ThermoFisher Scientific). Real time PCR was done using the Fast SYBR® Green Master Mix (ThermoFisher Scientific) on the 7900 Fast Real-Time PCR System (Applied Biosystems). PCR products were analyzed on a 2% agarose gel.

GABRR1 [4] = biological target: T1, GABRR1; experiment: Complete blood cell counts in peripheral blood of mice treated with agonists or antagonists of Gabrr1; format: in vivo; conditions: C57BL/6J mice, 7 days of treatment, injected once every day
Description: as §1

human CD34+ cells [5] = experiment: Flow cytometry of HSPC populations after 7-day differentiation of human CD34+ cells treated with agonists or antagonists of GABRR1; format: cell-based
Description: as §2
Cell Isolation and Culture. Human bone marrow mononuclear cells were purchased from AllCells and cultured in StemSpan™ Serum-Free Expansion Medium II (SFEM II, StemCell Technologies), supplemented with 20 ng/ml hSCF (PeproTech), hTPO, hIL-3, hIL-6 and Flt3 (R&D Systems). Mouse bone marrow mononuclear cells were isolated from mice and cultured in StemSpan™ SFEMI (StemCell Technologies), supplemented with mTPO and mSCF (PeproTech). […] Medium was changed every other day.
Human bone marrow or cord blood cells were stained in a similar way using Rat IgG for blocking and PI for viability. Human cells were stained with the antibodies cocktails as follows: CD34, CD38, CD45RA, CD123, CD71, CD105, CD41 and the lineage markers CD2, CD4, CD8, CD11b/Mac-1, CD14, CD19, CD20, CD56 and CD235a. The GABRR1 antibodies were also used for staining (Bloss Antibodies).
Surface marker cocktail of human hematopoietic stem and progenitor populations: • HSCs/MPPs: Lin-CD34+CD38− • MkP: Lin-CD34+CD38+CD123−CD45RA−CD41+ • CMP: Lin-CD34+CD38+CD123lowCD45RA− • MEP: Lin-CD34+CD38+CD123−CD45RA− • GMP: Lin-CD34+CD38+CD123+CD45RA+ • EP: Lin-CD34+CD38+CD123−CD45RA−CD71+CD150+.

human CD34+ cells [6] = experiment: CFU-MK colony-forming assay from CD34+ bone marrow cells; format: cell-based
Description: as §2
Colony-Forming Unit Assay. Colony forming assay was performed using the MegaCult™-C Complete Kit with Cytokines (Stemcell Tech, 04971)) following manufacturer's instruction, Colonies were counted after 12-14 days of culture and megakaryopoietic colonies were stained using antibody provided in the kit.

[7] = 7-day differentiated human CD34+ cells, relative to non-treated cells

T1 sequence (P56475 22-480): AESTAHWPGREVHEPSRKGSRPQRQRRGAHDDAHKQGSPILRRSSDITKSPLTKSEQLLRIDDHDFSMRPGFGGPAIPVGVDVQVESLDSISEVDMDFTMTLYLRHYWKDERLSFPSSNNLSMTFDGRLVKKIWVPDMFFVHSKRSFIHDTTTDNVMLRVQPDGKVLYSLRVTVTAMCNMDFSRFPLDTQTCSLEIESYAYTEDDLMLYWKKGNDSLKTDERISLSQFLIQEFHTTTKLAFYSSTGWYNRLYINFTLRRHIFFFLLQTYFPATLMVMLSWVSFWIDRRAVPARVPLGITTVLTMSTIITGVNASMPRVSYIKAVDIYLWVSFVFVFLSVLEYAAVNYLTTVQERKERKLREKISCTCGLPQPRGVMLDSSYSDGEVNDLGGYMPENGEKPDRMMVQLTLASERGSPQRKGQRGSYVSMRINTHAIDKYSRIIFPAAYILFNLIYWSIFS

SMILES | GABA-induced currents in GR+ HSCs (GABRR1 [1]) | GABA-induced inward current in GR+ MkP cells (GABRR1 [1]; various membrane potentials) | Increase of bone marrow MkPs (GABRR1 [2]) | Megakaryocyte-related gene expression (human CD34+ cells [3]) | Increase of platelet numbers (GABRR1 [4]) | Change of CD34+CD41+ population (MkP) (human CD34+ cells [5]; [7]) | Change of CD34+CD71+ population (EP) (human CD34+ cells [5]; [7]) | Frequency of all HSPCs tested (human CD34+ cells [5]; multicolor flow cytometry, 7 days of differentiation from CD34+ bone marrow cells) | MkP frequency relative to non-treated cells (human CD34+ cells [5]; multicolor flow cytometry, 7 days of differentiation from CD34+ bone marrow cells, non-treated set to 1) | Decrease in megakaryocyte colonies (human CD34+ cells [6])
NCCCC(=O)O [GABA, 4-aminobutanoic acid] | significant currents were induced | prominent GABA-induced inward current | 63.7%±24.4% | significantly increased |  |  |  |  |  | 
NCc1cc(=O)[nH]o1 [Muscimol, muscimol] |  |  | 55.0%±26.7% |  | 35.0%±13% |  |  |  |  | 
Br.COc1ccc(-c2ccc(=N)n(CCCC(=O)O)n2)cc1 [SR95531] |  |  |  |  | did not affect platelet number significantly | decreased dramatically | decreased dramatically | decreased the frequency of all HSPCs tested | 40.3%±13.6% | 40%
NC/C=C/C(=O)O [TACA, trans-4-aminocrotonic acid] |  |  | 23.3%±31.1% |  | 24.6%±19.0% |  |  |  |  | 
